In US9487489B2, “Halogen-substituted pyrazole derivatives as pest-control agents” (BAYER CROPSCIENCE AKTIENGESELLSCHAFT, priority 2013, dated 2016):

How the values were obtained:
[1] = test system: caterpillars of the armyworm (Spodoptera frugiperda); experiment: Spodoptera frugiperda spray test (SPODFR); format: in vivo; conditions: maize leaf discs, after 7 days
Outline: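 Maize leaf discs sprayed with compound in acetone/DMF with alkylaryl polyglycol ether emulsifier (1000 ppm) in water, dried, then infested with armyworm caterpillars. Mortality (%) scored after 7 days; 100% = all caterpillars killed, 0% = none killed.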

[2] = test system: larvae of the mustard beetle (Phaedon cochleariae); experiment: Phaedon cochleariae spray test (PHAECO); format: in vivo; conditions: Chinese cabbage leaf discs, after 7 days
Outline: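 Compound dissolved in acetone/dimethylformamide with alkylaryl polyglycol ether emulsifier, made up in water containing 1000 ppm emulsifier, then diluted to test concentrations and sprayed against mustard beetle larvae. Efficacy (% larvae killed) scored after 7 days.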

[3] = logP determination by HPLC on a reversed-phase column (C18), EEC Directive 79/831 Annex V.A8; format: physicochemical; conditions: HPLC on reversed-phase column (C18), acetonitrile/water with formic acid, EEC Directive 79/831 Annex V.A8
Outline: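 Retention on a C18 reversed-phase column (Zorbax Eclipse Plus, 1.8 micron) was used, eluting with acetonitrile/water, each containing formic acid. The gradient ran from 10% to 95% acetonitrile over 4.25 min, then held 1.25 min, at 55° C and 2.0 ml/min, with MS detection.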

[4] = test system: adult cat fleas (Ctenocephalides felis); experiment: Ctenocephalides felis in vitro contact test with adult cat fleas (T1); conditions: after 48 h
Outline: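 Test compound was dissolved in acetone p.a. (9 mg per 1 ml) and diluted as needed. 250 μl was spread evenly over the inner walls and floor of a 25 ml test tube by rotating on an orbital shaker for 2 h at 30 rpm. Once the solvent evaporated, 5-10 adult Ctenocephalides felis were added. Tubes were capped with a perforated plastic lid and kept horizontal at room temperature and ambient humidity.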

[5] = test system: green peach aphid (Myzus persicae); experiment: Myzus persicae spray test (MYZUPE); format: in vivo; conditions: Chinese cabbage leaf discs, after 6 days
Method: G. Myzus persicae-spray Test (MYZUPE)
Solvents: 78 parts by weight of acetone
• 1.5 parts by weight of dimethylformamide Emulsifier: alkylaryl polyglycol ether
To produce a suitable preparation of active compound, 1 part by weight of active compound is dissolved using the stated parts by weight of solvent and made up with water comprising an emulsifier concentration of 1000 ppm until the desired concentration is reached. To produce further test concentrations, the preparation is diluted with emulsifier-containing water.
Discs of Chinese cabbage leaves (Brassica pekinensis) infested by all stages of the green peach aphid (Myzus persicae) are sprayed with an active compound preparation of the desired concentration.
After 6 days, the efficacy in % is determined 100% here means that all of the aphids have been killed; 0% means that no aphids have been killed.

[6] = test system: greenhouse red spider mite (Tetranychus urticae); experiment: Tetranychus urticae spray test, OP-resistant (TETRUR); format: in vivo; conditions: bean leaf discs, after 6 days
Outline: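 Bean leaf discs carrying all stages of OP-resistant Tetranychus urticae were sprayed with compound formulated in acetone/dimethylformamide and diluted in water with 1000 ppm alkylaryl polyglycol ether emulsifier. Mortality (% efficacy, 100% = all mites killed) scored after 6 days.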

[7] = test system: adult cat fleas (Ctenocephalides felis); experiment: Ctenocephalides felis oral test (CTECFE); format: in vivo; conditions: application rate 100 ppm in citrated cattle blood; after 2 days
Outline: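 About 20 unfed adult cat fleas fed through parafilm membrane on citrated cattle blood containing compound (DMSO stock diluted in blood to test concentration). Kill % scored after 2 days (100% = all fleas dead).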

[8] = test system: adult dog ticks (Rhipicephalus sanguineus); experiment: Rhipicephalus sanguineus in vitro contact test with adult brown dog ticks (T2); conditions: after 48 h
Outline: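 Acetone solutions coated onto test tube walls and floor, giving 5 μg/cm^2 at 900 ppm. Five to ten adult ticks held per tube in the dark at room temperature for 48 h, then heated at 45-50° C for up to 5 min; efficacy is the percentage of dead or moribund ticks unable to climb away.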

[9] = test system: engorged adult female cattle ticks (Boophilus microplus); experiment: Boophilus microplus injection test (BOOPMI Inj); format: in vivo; conditions: application rate 20 μg/animal; injection into abdomen; assessed after 7 days
Outline: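 DMSO solution of compound (1 μl) injected into the abdomen of 5 engorged adult female ticks, which are then held in a climate-controlled room. After 7 days, efficacy is scored from laying of fertile eggs, with unclear eggs kept until larval hatch (~42 days); 100% means no fertile eggs, 0% all fertile.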

[10] = test system: L1 larvae of the Australian sheep blowfly (Lucilia cuprina); experiment: Lucilia cuprina test (LUCICU); format: in vivo; conditions: application rate 100 ppm; after 2 days
Outline: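 About 20 L1 larvae placed in a vessel with minced horsemeat plus compound (DMSO concentrate diluted with water to the desired concentration). Kill in % scored after 2 days, 100% meaning all larvae dead.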

[11] = test system: adult houseflies (Musca domestica); experiment: Musca domestica test (MUSCDO); format: in vivo; conditions: application rate 100 ppm; after 2 days
Outline: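 Compound dissolved in DMSO and diluted with water to the test concentration, applied with sugar solution on a sponge; 10 adult houseflies per vessel. Mortality scored after 2 days as % kill (100% all dead, 0% none).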

[12] = test system: cattle ticks (Boophilus microplus) Parkhurst strain, SP-resistant; experiment: Boophilus microplus dip test (BOOPMI Dip); format: in vivo; conditions: application rate 100 ppm, assessed after 7 days
Method: B. Boophilus microplus-dip Test (BOOPMI Dip)
Test animals: cattle ticks (Boophilus microplus) Parkhurst strain, SP-resistant
Solvent: dimethyl sulphoxide
10 mg of active compound are dissolved in 0.5 ml of dimethyl sulphoxide. For the purpose of preparing a suitable formulation, the active compound solution is diluted with water to the concentration desired in each case.
This active compound preparation is pipetted into tubes. 8-10 adult engorged female cattle ticks (Boophilus microplus) are transferred into a further tube with holes. The tube is immersed into the active compound formulation, and all ticks are completely wetted. After the liquid has run out, the ticks are transferred on filter discs into plastic dishes and stored in a climate-controlled room.
The activity is assessed after 7 days by laying of fertile eggs. Eggs whose fertility is not visible from the outside are stored in a climate-controlled cabinet until the larvae hatch after about 42 days. An efficacy of 100% means that none of the ticks has laid any fertile eggs; 0% means that all eggs are fertile.

| Compound | efficacy in % ([1]; application rate 100 g/ha) [%] | efficacy in % ([2]; application rate 100 g/ha) [%] | logP [3] | efficacy (dead or moribund fleas) ([4]; application rate 1 μg/cm^2) [%] | efficacy (dead or moribund fleas) ([4]; application rate 5 μg/cm^2) [%] | efficacy in % ([5]; application rate 100 g/ha) [%] | efficacy in % ([6]; application rate 100 g/ha) [%] | efficacy (kill in %) [7] [%] | efficacy (dead or moribund ticks) ([8]; application rate 5 μg/cm^2) [%] | efficacy (laying of fertile eggs) [9] [%] | efficacy (kill in %) [10] [%] | efficacy (kill in %) [11] [%] | efficacy in % ([1]; application rate 500 g/ha) [%] | efficacy in % ([2]; application rate 500 g/ha) [%] | efficacy in % ([5]; application rate 500 g/ha) [%] | efficacy in % ([6]; application rate 500 g/ha) [%] | efficacy (dead or moribund ticks) ([8]; application rate 1 μg/cm^2) [%] | efficacy (laying of fertile eggs) [12] [%] |
| --- | --- | --- | --- | --- | --- | --- | --- | --- | --- | --- | --- | --- | --- | --- | --- | --- | --- | --- |
| CON=Cc1ccc(-c2cnn(-c3c(C(F)(F)F)c(C(F)(F)C(F)(F)F)nn3C)c2)cc1C(=O)NC1CC1 (mixture of isomers) [Ic-118] | 100 | 100 | 3.99 | 100 | 100 | 100 | 100 |  |  |  |  |  |  |  |  |  |  |  |
| Cn1nc(C(F)(F)C(F)(F)F)c(C(F)(F)F)c1-n1cc(-c2ccc(Cl)c(C(=O)NC3CSC3)c2)cn1 [Ic-28] | 100 | 100 | 4.09 | 100 | 100 | 90 | 100 | 100 | 100 | 100 | 100 | 100 |  |  |  |  |  |  |
| Cn1nc(C(F)(F)C(F)(F)F)c(C(F)(F)F)c1-n1cc(-c2cccc(C(=O)NC3(C#N)CC3)c2F)cn1 [Ic-40] |  |  |  |  |  |  |  | 100 |  | 100 | 100 | 100 | 100 | 100 | 100 | 100 |  |  |
| Cn1nc(C(F)(F)C(F)(F)F)c(C(F)(F)F)c1-n1cc(-c2cc(C(=O)NC3CC3)ccc2F)cn1 [Ic-41] |  |  |  | 100 | 100 |  |  | 100 |  | 100 | 100 | 100 | 100 | 100 | 100 | 100 |  |  |
| Cn1nc(C(F)(F)C(F)(F)F)c(C(F)(F)F)c1-n1cc(-c2cc(F)c(F)c(C(=O)NC3CC3)c2)cn1 [Ic-55] |  |  |  |  |  |  |  | 100 |  | 100 | 100 | 100 | 100 | 100 | 100 | 80 |  |  |
| Cn1nc(C(F)(F)C(F)(F)F)c(C(F)(F)F)c1-n1cc(-c2cncc(C(=O)NC3CC3)c2)cn1 [Ic-70] |  |  |  | 100 | 100 |  |  | 100 | 100 | 100 | 100 | 100 | 100 | 100 | 90 |  | 100 |  |
| Cn1nc(C(F)(F)C(F)(F)F)c(C(F)(F)F)c1-n1cc(-c2cncc(C(=O)NC3(C#N)CC3)c2)cn1 [Ic-71] |  |  |  | 100 | 100 |  |  | 100 | 100 | 100 | 100 | 80 | 100 | 100 | 100 | 100 | 80 |  |
| CSC1CC(NC(=O)c2cc(-c3cnn(-c4c(C(F)(F)F)c(C(F)(F)C(F)(F)F)nn4C)c3)ccc2Cl)C1 (stereo not drawn) [Ic-108] | 83 | 100 | 4.28 | 100 | 100 | 90 | 100 |  | 80 |  |  |  |  |  |  |  |  |  |
| Cc1ccc(-c2cnn(-c3c(C(F)(F)F)c(C(F)(F)C(F)(F)F)nn3C)c2)cc1C(=O)NC1CC1 [Ic-130] |  | 100 | 3.76 |  |  |  |  |  |  |  |  |  |  |  |  |  |  | 100 |
| Cn1nc(C(F)(F)C(F)(F)F)c(C(F)(F)F)c1-n1cc(-c2ccc(Cl)c(C(=O)NC3CCCC3)c2)cn1 [Ic-141] |  |  |  | 100 | 100 |  |  |  | 100 |  |  |  | 100 | 100 | 100 | 100 | 80 |  |
| Cc1nnc(NC(=O)c2cc(-c3cnn(-c4c(C(F)(F)F)c(C(F)(F)C(F)(F)F)nn4C)c3)ccc2Cl)o1 [Ic-158] |  |  |  | 100 | 100 |  |  | 100 |  | 100 | 100 | 90 |  |  |  |  |  | 100 |
| Cn1nccc1NC(=O)c1cc(-c2cnn(-c3c(C(F)(F)F)c(C(F)(F)C(F)(F)F)nn3C)c2)ccc1Cl [Ic-163] |  |  |  | 100 | 100 |  |  | 100 |  | 100 | 100 | 90 | 100 | 100 | 90 | 100 | 100 |  |
| CSCCNC(=O)c1cc(-c2cnn(-c3c(C(F)(F)F)c(C(F)(F)C(F)(F)F)nn3C)c2)ccc1Cl [Ic-167] |  |  |  | 100 | 100 |  |  |  | 100 |  |  |  | 100 | 100 | 90 | 100 | 100 |  |
| Cn1nc(C(F)(F)C(F)(F)F)c(C(F)(F)F)c1-n1cc(-c2ccc(Cl)c(C(=O)NC3(C4CC4)CC3)c2)cn1 [Ic-188] |  |  | 4.43 |  |  |  |  |  |  |  |  |  | 100 | 100 | 100 | 100 |  |  |
| Cn1nc(C(F)(F)C(F)(F)F)c(C(F)(F)F)c1-n1cc(-c2ccc(S(C)(=O)=O)c(C(=O)NC3CC3)c2)cn1 [Ic-190] | 100 | 100 | 3.35 |  |  | 100 | 100 |  |  |  |  |  |  |  |  |  |  |  |
